What all share (assay type): physicochemical
Data set [1] can be described thus: Related substances in compound II solutions at different pH values (Table 1). Conditions: aqueous solutions, pH adjusted with glacial acetic acid or tartaric acid; 40°C±2°C, 10 days. On the procedure: (§1) 750 ml of water for injection was measured and taken; nitrogen was charged beneath the surface of the liquid for about 20 min; and the water temperature was controlled to be 50° C. or less. 37.5 mg of compound II was weighed, added to the above-mentioned water for injection and stirred to dissolution and clarification to obtain solution (1). Solution (1) was adjusted with glacial acetic acid (source: Chengdu Kelong Chemical Co., Ltd.) and tartaric acid to different pH values, respectively, and aqueous solutions containing compound II at different pH values were obtained. The aqueous solutions were placed under the conditions of 40° C.±2° C. for 10 days, and the performance of related substances in the solutions at different pH values was examined (including the solution at a pH value not being adjusted), with data shown in Table 1.

The nature of data set [2]: Related substances in compound II solutions at pH range 3-5.5 (Table 2). To be noted: aqueous solution, pH adjusted with glacial acetic acid; 40°C±2°C, 10 days. How it is done: as §1, with “Considering the operability of industrial production, we examined the stability of solutions at a pH range of 3-5.5. 750” for “750”, “Ltd.)” for “Ltd.) and tartaric acid”, “values,” for “values, respectively,”, “examined,” for “examined (including the solution at a pH value not being adjusted),”, “2.” for “1.”

Data set [3] in a line: Related substances of formulation solutions for injection after high temperature acceleration at 40°C. Conditions: compound II raw material (stored refrigerated 2°C-8°C), control, 0 days. How it is done: The sample of Formulation 1 solution for injection was placed under the conditions of 40° C.±2° C. for 5 days; compound II raw material (stored under refrigerated conditions of 2° C.-8° C.) was used as a control; and changes of related substances in the sample were examined, with data shown in Table 3.
Formulation 2 solution for injection was placed under the conditions of 40° C. 2° C. for 5 days; compound II raw material (stored under refrigerated conditions of 2° C.-8° C.) was used as a control; and changes of related substances in the sample were examined, with data shown in Table 4.
Formulation 3 solution for injection was placed under the conditions of 40° C. 2° C. for 5 days; compound II raw material (stored under refrigerated conditions of 2° C.-8° C.) was used as a control; and changes of related substances in the sample were examined, with data shown in Table 5.
Formulation 4 solution for injection was placed under the conditions of 40° C. 2° C. for 9 days; compound II raw material (stored under refrigerated conditions of 2° C.-8° C.) was used as a control; and changes of related substances in the sample were examined, with data shown in Table 6.
Formulation 5 solution for injection was placed under the conditions of 40° C. […]

Where “and” joins values, the source holds several entries; their conditions need not be identical. Identical values can stand only once.

For the molecule `CC(=O)N1CC2(CCN(C(=O)[C@@H](CCCCN)NC(=O)[C@@H](CC(C)C)NC(=O)[C@@H](Cc3ccccc3)NC(=O)[C@H](N)Cc3ccccc3)CC2)C1` [Compound II], the “pH value of best stability” value in data set [1] is given as “about 4”. Further, the “pH range at which the product is stable” value in data set [2] is on record as 3-5.5. In data set [3], the “Total impurity (%)” value is 1.098% and 1.238%.

Values taken from patent US12599647B2, “Peptide amide composition and preparation method therefor” (Xizang Haisco Pharmaceutical Co., Ltd., priority 2019, dated 2026).
